Experimental data published in US9617517B2, “Small chemical compound which promotes induction of differentiation of stem cells into insulin-producing cells and method for inducing differentiation of stem cells into insulin-producing cells using said small chemical compound” (NATIONAL UNIVERSITY CORPORATION KUMAMOTO UNIVERSITY, priority 2011, dated 2017).

Legend:
Ngn3/GFP mouse ES cells = assay: Ngn3 positive cell inducing rate; type: cell-based; settings: TBZ 2.5 μM or dBu-cAMP 0.6 μM; addition days 9-11, 11-13 or 9-13; day 13 (FIG. 16C)
Experimental: The influence exerted on the Ngn3 positive cell inducing rate by addition of TBZ (2.5 μM) or dBu-cAMP (0.6 μM) was confirmed. FIG. 16A is a view schematically showing the addition periods of TBZ or dBu-cAMP, and the addition periods are a) on days 9 to 11 of culture, b) on days 11 to 13 of culture, and c) on days 9 to 13 of culture.
First, the compound was not added or TBZ was added on days 9 to 13 of culture (period c), and visible light photographs and fluorescence of Ngn3/GFP mouse ES cells were observed on day 13 of culture. The left one is a visible light photograph and the right one is fluorescence.
Next, the compound was not added, or TBZ or dBu-cAMP was added under the above-described conditions a), b) and c), and the proportion of GFP positive cells on day 13 of culture was checked. The ratios of the proportions of GFP positive cells and Ngn3 positive cells when the ratio in the case of no addition is 1 are shown in FIG. 16C. […] The order of intensity of the effect was a), c), b) in descending order.

differentiated ES cells = assay: Real time PCR of gene expression in differentiated ES cells; type: cell-based, mouse; settings: TBZ 2.5 μM

CCCC(=O)Nc1ncnc2c1ncn2[C@@H]1O[C@@H]2COP(=O)(O)O[C@H]2[C@H]1OC(=O)CCC [Dibutyryl- cAMP, dibutyrate-cAMP] was tested, and the “number of GFP positive cells” value (Ngn3/GFP mouse ES cells) was “increased in all conditions”, the “expression of Abcc8” value (differentiated ES cells; dBu-cAMP 0.6 μM (FIG. 13)) was “increased remarkably” and the “expression of Glut2” value (differentiated ES cells; dBu-cAMP 0.6 μM (FIG. 13)) was “increased remarkably”. The “expression of MafA” value (differentiated ES cells; dBu-cAMP 0.6 μM (FIG. 13)) was “increased slightly”, the “expression of Stx1” value (differentiated ES cells; dBu-cAMP 0.6 μM (FIG. 13)) was “increased slightly” and the “expression level of MafA, time course” value (differentiated ES cells; dBu-cAMP 0.6 μM from day 11, after day 13 (FIG. 15)) was “promoted”. The “expression level of Ngn3” value (differentiated ES cells; dBu-cAMP 0.6 μM from day 11, day 13 and day 15 (FIG. 15)) was “increased also” and the “expression level of Insulin1” value (differentiated ES cells; dBu-cAMP 0.6 μM from day 11, single after day 13, both after day 15 (FIG. 15)) was “promoted”.
